Reference: US20190151369A1, “Engineered Stem Cell Therapy for Cardiac Repair” (Emory University, priority 2014, published 2019)
Where no end group is shown, it is not given here. The star is where a group is joined. Palmitoyl = CCCCCCCCCCCCCCCC(=O)*

Columns and labels:
[1] = Mechanical properties of self-assembled PA-RGDS gel (storage modulus); type: physicochemical
Excerpt: Cardiomyocytes (CMs) derived from pluripotent stem cells (PSCs) including both embryonic stem cells (ESCs) and the induced pluripotent stem cells (iPSCs) are useful for generating new CMs in injured hearts, with PA-RGDS, which addresses low cell survival. The PA-RGDS provides a protective microenvironment for CMs in vivo. An important aspect of the PA-RGDS is the physical properties of the gels, which can be tuned to provide mechanical strength. […] PA-RGDS nanomatrix gels were also observed to be structurally stable with well-defined cylindrical shape and increased durability for handling and transport. This is particularly important for early cell survival, as cardiac tissue scaffolds require enough mechanical strength to resist the cardiac cycle, but enough flexibility to allow the contractile function of implanted CMs. The mechanical strength of PA-RGDS can be tuned for the application.

mouse experimental MI [2] = experiment: Echocardiography (EF, FS) in mouse myocardial infarction model; type: in vivo; settings: up to 4 weeks after MI induction
Excerpt: (§1) Myocardial infarction (MI) was induced in mice by ligation of the left anterior descending coronary artery, and cells or other reagents were intramyocardially injected through 30 G needles at two different sites in the border zone of the myocardium immediately after surgery. Mice were randomly assigned into four treatment groups: (i) PBS as a control group, (ii) 2×10^5 mESCs-derived CMs only, (iii) PA-RGDS only, or (iv) 2×10^5 mESCs-derived CMs encapsulated with PA-RGDS. Due to the limiting factor of murine heart size and the requirement to deliver a large quantity of cells, only one concentration ratio of PA […] to cells was used for the studies. All CMs were obtained from the same differentiation batch and prelabeled with CM-DiI (red fluorescence) before cell injection for cell tracking in histology.
Next, the therapeutic effects of treatments with CM only, PA-RGDS only and mESC-CMs with PA-RGDS, comparing with PBS control in ischemic myocardium in mice was investigated. Echocardiography was performed regularly to measure cardiac remodeling and function (FIG. 6A).
Prior studies reported that the beneficial effects from treatment with various types of stem cells or stem cell derived cells were substantially diminished by 3-4 weeks, mostly due to massive cell death or ejection from the myocardium. […] (FIG. 7A)

RNVCMs = experiment: Live/Dead assay after H2O2 treatment (simulated ischemic injury in vitro); type: cell-based; settings: H2O2 (200 μM) treatment
Excerpt: Since oxidative stress in the ischemic heart is increasingly recognized as a possible cause for poor survival of transplanted cells, whether encapsulation of the CMs with PA-RGDS increases their survival when exposed to the H2O2 simulating ischemic condition in vitro was investigated.

mouse experimental MI [3] = experiment: Scar area by Masson's trichrome staining of infarcted hearts; type: in vivo; settings: 4 weeks after MI induction, N=6
Excerpt: as §1
Masson's Trichrome staining was performed with fixed sections of infarcted hearts to evaluate the extent of scar formation 4 weeks after MI induction.

CH3(CH2)14CONH-GTAGLIGQ-RGDS (Palmitoyl-GTAGLIGQRGDS) [PA-RGDS, gels made 1:1 with PA-S]
Storage modulus (G′) [1]: around 100 Pa | Cardiac function (EF and FS) by echocardiography (mouse experimental MI [2]): dramatically reduced | Live cells (Live/Dead assay) after H2O2 (RNVCMs): increased cell survival | Scar area (mouse experimental MI [3]): 41.7±4.7%
